Measured values: patent publication US20250163104A1, “MACROCYCLIC IMMUNOMODULATORS” (priority 2021, published 2025)
pIC50: −log10 of the molar value. Where a SMILES comes first, the peptide text is derived from it. Bridges are numbered along the chain shown (N, C = ends). [ ]: non-standard residue; d: D form. The star is where a group is joined. ξ: configuration not given here. Phe(4-COOH) = N[C@@H](Cc1ccc(C(=O)O)cc1)C(=O)O; Bip = N[C@@H](Cc1ccc(-c2ccccc2)cc1)C(=O)O; Phe(4-NH2) = Nc1ccc(C[C@H](N)C(=O)O)cc1; Ala(2-furyl) = N[C@@H](Cc1ccco1)C(=O)O; Phe(3-Me) = Cc1cccc(C[C@H](N)C(=O)O)c1; Phe(4-F) = N[C@@H](Cc1ccc(F)cc1)C(=O)O; Val(3-OH) = CC(C)(O)[C@H](N)C(=O)O; 4Pal = N[C@@H](Cc1ccncc1)C(=O)O; 2Thi = N[C@@H](Cc1cccs1)C(=O)O; Cha = N[C@@H](CC1CCCCC1)C(=O)O; Cit = NC(=O)NCCC[C@H](N)C(=O)O; Chg = N[C@H](C(=O)O)C1CCCCC1; Carboxymethyl = O=C(O)C*; Orn = NCCC[C@H](N)C(=O)O; Pra = C#CC[C@H](N)C(=O)O; Dab = NCC[C@H](N)C(=O)O; Nva = CCC[C@H](N)C(=O)O; Dap = NC[C@H](N)C(=O)O; ξOrn = NCCCC(N)C(=O)O

Target: T1, human PD-1 / PD-L1-Ig binding on Jurkat cell line over-expressing human PD-1 (Jurkat-PD-1) (Homo sapiens, UniProt Q15116)
T1 construct: expressed in transfected cells; host or cells: Jurkat
Assay: Jurkat-PD-1 Cell Binding High-Content Screening Assay (CBA)
Format: cell-based
Details: Jurkat-PD-1 cells, PE-labeled PD-L1-Ig 20 nM final; read-out: Jurkat HPD1_PDL1 IC50
Outline: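 Binding of fluorescent PD-L1-Ig (phycoerythrin linked via the Ig tag, 20 nM final) to PD-1-overexpressing Jurkat cells was imaged after a 2 h, 37° C compound pretreatment and 1 hour ligand incubation.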

T1 sequence (Q15116 25-288): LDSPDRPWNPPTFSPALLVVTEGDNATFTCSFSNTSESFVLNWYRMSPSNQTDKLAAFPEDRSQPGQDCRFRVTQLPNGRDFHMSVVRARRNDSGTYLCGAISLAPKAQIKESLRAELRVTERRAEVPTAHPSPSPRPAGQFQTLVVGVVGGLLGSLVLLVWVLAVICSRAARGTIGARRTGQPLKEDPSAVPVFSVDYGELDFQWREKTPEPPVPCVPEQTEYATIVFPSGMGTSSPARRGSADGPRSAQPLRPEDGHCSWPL

| pIC50 | Structure (SMILES) |
| --- | --- |
| 7.42 | CC(C)C[C@H]1NC(=O)[C@H](CCCN)NC(=O)[C@H](CCC(=O)O)NC(=O)[C@H](Cc2ccc(-c3ccccc3)cc2)NC(=O)[C@H](C2CCCCC2)NC(=O)[C@H](Cc2c[nH]c3ccccc23)NC(=O)[C@H](CC(=O)O)NC(=O)[C@H](Cc2ccc(OCC(=O)O)cc2)NC(=O)[C@H](CN)NC(=O)CSC[C@@H](C(=O)N[C@@H](C)C(N)=O)NC(=O)[C@H]([C@@H](C)O)NC(=O)[C@H](C(C)C)NC(=O)[C@H](CC2CCCCC2)NC(=O)[C@H](CCN)NC1=O [Compound 1714] ({CH2CO}-[Dap]Y(Carboxymethyl)DW[Chg][Bip]E[Orn][dL][Dab][Cha]VTCA-NH2; thioether N-14) |
| 7.80 | CC(C)C[C@H]1NC(=O)[C@H](CCCN)NC(=O)[C@H](CCCNC(N)=O)NC(=O)[C@H](Cc2ccc(-c3ccccc3)cc2)NC(=O)[C@H](C(C)C)NC(=O)[C@H](Cc2c[nH]c3ccccc23)NC(=O)[C@H](CC(=O)O)NC(=O)[C@H](Cc2ccc(F)cc2)NC(=O)[C@H](CN)NC(=O)CSC[C@@H](C(=O)N[C@@H](C)C(N)=O)NC(=O)[C@H]([C@@H](C)O)NC(=O)[C@H](C(C)C)NC(=O)[C@H](CC2CCCCC2)NC(=O)[C@H](CCN)NC1=O [Compound 2103] ({CH2CO}-[Dap][Phe(4-F)]DWV[Bip][Cit][Orn][dL][Dab][Cha]VTCA-NH2; thioether N-14) |
| 7.54 | CC(C)C[C@H]1NC(=O)[C@H](CCCN)NC(=O)[C@H](CCC(=O)O)NC(=O)[C@H](Cc2ccc(-c3ccccc3)cc2)NC(=O)[C@H](C(C)C)NC(=O)[C@H](Cc2c[nH]c3ccccc23)NC(=O)[C@H](CC(=O)O)NC(=O)[C@H](Cc2ccc(OCC(=O)O)cc2)NC(=O)[C@H](CN)NC(=O)CSC[C@@H](C(=O)N[C@@H](C)C(N)=O)NC(=O)[C@H]([C@@H](C)O)NC(=O)[C@H](C(C)C)NC(=O)[C@H](CC2CCCCC2)NC(=O)[C@H](CCC(=O)O)NC1=O [Compound 1515] ({CH2CO}-[Dap]Y(Carboxymethyl)DWV[Bip]E[Orn][dL]E[Cha]VTCA-NH2; thioether N-14) |
| 8.16 | CC(C)C[C@H]1NC(=O)C(CCCN)NC(=O)[C@H](CCCNC(N)=O)NC(=O)[C@H](Cc2ccc(-c3ccccc3)cc2)NC(=O)[C@H](C(C)C)NC(=O)[C@H](Cc2c[nH]c3ccccc23)NC(=O)[C@H](CC(=O)O)NC(=O)[C@H](Cc2ccc(C(=O)O)cc2)NC(=O)[C@H](CN)NC(=O)CSC[C@@H](C(=O)N[C@@H](C)C(N)=O)NC(=O)[C@H]([C@@H](C)O)NC(=O)[C@H](C(C)C)NC(=O)[C@H](CC2CCCCC2)NC(=O)[C@H](CCN)NC1=O (stereo partly drawn) [Compound 1333] ({CH2CO}-[Dap][Phe(4-COOH)]DWV[Bip][Cit][ξOrn][dL][Dab][Cha]VTCA-NH2; thioether N-14) |
| 6.10 | CC(C)C[C@H]1NC(=O)[C@H](CCCN)NC(=O)[C@H](CCC(=O)O)NC(=O)[C@H](Cc2ccc(-c3ccccc3)cc2)NC(=O)[C@H](C(C)C)NC(=O)[C@H](Cc2c[nH]c3ccccc23)NC(=O)[C@H](CC(=O)O)NC(=O)[C@H](Cc2ccc(OCC(=O)O)cc2)NC(=O)[C@H](CN)NC(=O)CSC[C@@H](C(=O)N[C@@H](C)C(N)=O)NC(=O)[C@H]([C@@H](C)O)NC(=O)[C@H](C(C)C)NC(=O)[C@H](Cc2ccc(N)cc2)NC(=O)[C@H](CCN)NC1=O [Compound 1473] ({CH2CO}-[Dap]Y(Carboxymethyl)DWV[Bip]E[Orn][dL][Dab][Phe(4-NH2)]VTCA-NH2; thioether N-14) |
| 7.78 | CC(C)C[C@H]1NC(=O)[C@H](CCCN)NC(=O)[C@H](CCC(=O)O)NC(=O)[C@H](Cc2ccc(-c3ccccc3)cc2)NC(=O)[C@H](C(C)C)NC(=O)[C@H](Cc2c[nH]c3ccccc23)NC(=O)[C@H](CC(=O)O)NC(=O)[C@H](Cc2cccs2)NC(=O)[C@H](Cc2ccncc2)NC(=O)CSC[C@@H](C(=O)N[C@@H](C)C(N)=O)NC(=O)[C@H]([C@@H](C)O)NC(=O)[C@H](C(C)C)NC(=O)[C@H](CC2CCCCC2)NC(=O)[C@H](CCN)NC1=O [Compound 2194] ({CH2CO}-[4Pal][2Thi]DWV[Bip]E[Orn][dL][Dab][Cha]VTCA-NH2; thioether N-14) |
| 8.12 | Cc1cccc(C[C@@H]2NC(=O)[C@H](CC(=O)O)NC(=O)[C@H](Cc3ccc(O)cc3)NC(=O)[C@H](CC(N)=O)NC(=O)CSC[C@@H](C(=O)N[C@@H](C)C(N)=O)NC(=O)[C@H]([C@@H](C)O)NC(=O)[C@H](C(C)C)NC(=O)[C@H](CC3CCCCC3)NC(=O)[C@H](CCN)NC(=O)[C@@H](CC(C)C)NC(=O)[C@H](CCCN)NC(=O)[C@H](CCC(=O)O)NC(=O)[C@H](Cc3ccc(-c4ccccc4)cc3)NC(=O)[C@H](C(C)C)NC2=O)c1 [Compound 1420] ({CH2CO}-NYD[Phe(3-Me)]V[Bip]E[Orn][dL][Dab][Cha]VTCA-NH2; thioether N-14) |
| 8.24 | C#CC[C@H](NC(=O)[C@H](CCN)NC(=O)[C@@H]1CSCC(=O)N[C@@H](CCC)C(=O)N[C@@H](Cc2ccc(OCC(=O)O)cc2)C(=O)N[C@@H](CC(=O)O)C(=O)N[C@@H](Cc2cccc(C)c2)C(=O)N[C@@H](Cc2ccc(C(=O)O)cc2)C(=O)N[C@@H](Cc2ccc(-c3ccccc3)cc2)C(=O)N[C@@H](Cc2ccc(C(=O)O)cc2)C(=O)N[C@@H](CCCN)C(=O)N[C@H](CC(C)C)C(=O)N[C@@H](CCN)C(=O)N[C@@H](CC2CCCCC2)C(=O)N[C@@H](C(C)C)C(=O)N[C@@H](CCC(=O)O)C(=O)N1)C(=O)O [Compound 1822] ({CH2CO}-[Nva]Y(Carboxymethyl)D[Phe(3-Me)][Phe(4-COOH)][Bip][Phe(4-COOH)][Orn][dL][Dab][Cha]VEC[Dab][Pra]-OH; thioether N-14) |
| 8.08 | Cc1cccc(C[C@@H]2NC(=O)[C@H](CC(=O)O)NC(=O)[C@H](Cc3ccc(OCC(=O)O)cc3)NC(=O)[C@H](Cc3ccco3)NC(=O)CSC[C@@H](C(=O)N[C@@H](CCN)C(N)=O)NC(=O)[C@H](Cc3cnc[nH]3)NC(=O)[C@H](C(C)(C)O)NC(=O)[C@H](CC3CCCCC3)NC(=O)[C@H](CCN)NC(=O)[C@@H](CC(C)C)NC(=O)[C@H](CCCN)NC(=O)[C@H](Cc3ccc(OCC(=O)O)cc3)NC(=O)[C@H](Cc3ccc(-c4ccccc4)cc3)NC(=O)[C@H](Cc3ccc(OCC(=O)O)cc3)NC2=O)c1 [Compound 2646] ({CH2CO}-[Ala(2-furyl)]Y(Carboxymethyl)D[Phe(3-Me)]Y(Carboxymethyl)[Bip]Y(Carboxymethyl)[Orn][dL][Dab][Cha][Val(3-OH)]HC[Dab]-NH2; thioether N-14) |
| 6.99 | Cc1cccc(C[C@@H]2NC(=O)[C@H](CC(N)=O)NC(=O)[C@H](Cc3ccc(C(=O)O)cc3)NC(=O)[C@H](CCN)NC(=O)CSC[C@@H](C(=O)N[C@@H](CCN)C(N)=O)NC(=O)[C@H](CO)NC(=O)[C@H](C(C)(C)O)NC(=O)[C@H](CC3CCCCC3)NC(=O)[C@H](CCN)NC(=O)[C@@H](CC(C)C)NC(=O)[C@H](CCCN)NC(=O)[C@H](Cc3ccc(C(=O)O)cc3)NC(=O)[C@H](Cc3ccc(-c4ccccc4)cc3)NC(=O)[C@H](Cc3ccc(C(=O)O)cc3)NC2=O)c1 [Example 2720] ({CH2CO}-[Dab][Phe(4-COOH)]N[Phe(3-Me)][Phe(4-COOH)][Bip][Phe(4-COOH)][Orn][dL][Dab][Cha][Val(3-OH)]SC[Dab]-NH2; thioether N-14) |
